The numbers were not newly measured in patent US20130078290A1, “Gastroretentive Dosage Forms Of GABA Analogs” (Rubicon Research Private Limited, priority 2010, published 2013), which cites them from elsewhere.

Each structure is given as a SMILES string.

The conditions of series [1]: in water and in acidic and basic aqueous solutions.
For series [2] the following is noted: for Elimination half-life: in vivo.

With `NCC1(CC(=O)O)CCCCC1` [gabapentin, 1-(Aminomethyl)cyclohexaneacetic acid], the Solubility result in series [1] is “freely soluble”. For the same compound, in series [2] (dose in range of 300-400 mg), the Oral bioavailability result was “approximately 60%”. Further, the Elimination half-life in series [2] was 5 to 7 h.

Consider `CC(C)CC(CN)CC(=O)O` (centres unmarked) [pregabalin, 5-methyl-3-aminomethyl-hexanoic acid], for which the Solubility result in series [1] is “freely soluble”. Also, in series [2], the Elimination half-life entry is listed as “about 6.3 hours”.
